# Measured values from patent publication US11958821B2, “Phenethylamine compounds salts, polymorphic forms and methods of use thereof” (Terran Biosciences Inc., priority 2021, dated 2024).
# Like-named read-outs stand apart in the source and are kept apart here.
# Tests used:
# [1] = Estimated solubility of MDMA salts (solvent added in aliquots, visual inspection); type: physicochemical
# [2] = Dynamic vapor sorption (DVS) analysis with post-DVS XRPD; type: physicochemical; settings: for Hygroscopicity by DVS: 25° C., 5 to 95% RH
# Procedure: DVS analysis was carried out using a TA Instruments Q5000 Dynamic Vapor Sorption analyzer. The instrument was calibrated with standard weights and a sodium bromide standard for humidity. Approximately 5-25 mg of sample was loaded into a metal-coated quartz pan for analysis. The sample was analyzed at 25° C. with a maximum equilibration time of one hour in 10% relative humidity (RH) steps from 5 to 95% RH (adsorption cycle) and from 95 to 5% RH (desorption cycle). The movement from one step to the next occurred either after satisfying the equilibrium criterion of 0.01% weight change or, if the equilibrium criterion was not met, after one hour. The percent weight change values were calculated using Microsoft Excel®.
# [3] = Hygroscopicity of MDMA salts at 75% RH, visual assessment after 24 hours; type: physicochemical; settings: visual assessment after exposure to 75% RH (room temp) for 24 hours
# Procedure: A small amount of each salt was placed in a glass vial and exposed to 75% relative humidity for 24 hours. […] That is, the solids remained free flowing.
# All materials having a unique X-ray powder diffraction (XRPD) pattern were characterized by differential scanning calorimetry (DSC), thermogravimetric analysis (TG), and ^1H nuclear magnetic resonance (NMR) spectroscopy. The hygroscopicity of each salt at 75% RH was also evaluated. The water solubility of each salt was estimated by adding water in aliquots to weighed portions of solid at room temperature while sonicating. Whether dissolution had occurred was judged by visual inspection after addition of each solvent aliquot. Solubility numbers were calculated by dividing the weight of the sample by the total amount of solvent used to dissolve the sample. The actual solubilities may be greater than the numbers calculated because of the use of solvent aliquots that were too large or because of slow dissolution rates.
# [4] = cited from earlier work
# [5] = cited from earlier work; remark: listed apart in the source
# Male Sprague-Dawley rats = experiment: Rat elevated zero-maze study with MDAI and chlordiazepoxide; type: in vivo
# Procedure: Three rats from the vehicle group, 3 rats from the 2.5 mg/kg MDAI group, and 3 rats from the CDP group were tested on a separate day from the other rats.
# [6] = tested on: participants diagnosed with at least moderate post-traumatic stress disorder (PTSD); experiment: Double-blind, randomized, placebo-controlled clinical trial of MDAI-assisted psychotherapy in PTSD; type: in vivo, human
# Procedure: A multicenter, randomized, double-blind, placebo-controlled trial is conducted to assess the efficacy and safety of MDAI-assisted psychotherapy versus psychotherapy with placebo control in participants diagnosed with at least moderate post-traumatic stress disorder (PTSD).
# This multicenter, randomized, double-blind, placebo-controlled trial is conducted at various sites in the United States with IRB approval from each study site. A flexible dose of MDAI hydrochloride salt or placebo, followed by a supplemental half-dose unless contraindicated by patient's previous response or medical history, is also administered during the Treatment Period with psychotherapy in at least 3 blinded monthly Experimental Sessions. The Supplemental Dose extends the duration of drug effects on the participants during an Experimental Session. An optional Risk Evaluation and Mitigation Strategy (REMS) Protocol may be implemented for MDAI and placebo-groups. The Treatment Period lasts for approximately 12 weeks. During the Treatment Period, each Experimental Session is followed by three Intervening Sessions of non-drug psychotherapy. Each Experimental Session involves an overnight stay. The Primary Outcome measure, the change in Clinician Administered PTSD Scale for DSM-5 (CAPS-5), is determined by a blinded Independent Rater (IR) pool multiple times throughout the study. The study consists of separate periods for each participant. Initially, prospective participants undergo a Screening Period involving an initial eligibility assessment, a medical history intake, informed consent, and enrollment of eligible participants. Next, a Preparation Period is undertaken for enrolled participants involving medication tapering and clinical baseline assessments to confirm each participant meets enrollment criteria. As part of the Preparation Period, a detailed assessment of co-morbidities to PTSD is recorded. Participants may remain on prescribed courses of selective serotonin reuptake inhibitor (SSRI) or serotonin and norepinephrine reuptake inhibitor (SNRI) treatment. Dosages and/or frequency of administration of a prescribed SSRI or SNRI may be adjusted to fit within study parameters. Participants may be required to taper a prescribed course of medication in order to maintain eligibility within the study. The Treatment Period consists of three monthly Experimental Sessions and associated Intervening Sessions of integrative behavioral psychotherapy. The Treatment Period lasts approximately 12 weeks. Following the Treatment Period is a Follow-up Period and Study Conclusion. During the Follow-up Period and Study Conclusion, participants complete 4 weeks with no study visits, followed by a Study Conclusion visit.
# This study compares the effects of three blinded Experimental Sessions of psychotherapy in combination with flexible doses of MDAI or placebo administered as described below. Non-drug preparatory and intervening psychotherapy sessions are also included. Patient's weight is determined for dosage calculation. Initial dose is 100 mg unless this will result in a dosage of less than 1.5 mg/kg of patient weight. Initial dose thereby adjusted upward in 50 mg increments to deliver the lowest dose possible of at least 1.5 mg/kg of patient weight. Initial dose for Experimental Session 2 and 3 is cumulative dose calculated by adding the initial dose plus REMS protocol dose used the previous Experimental Session for each patient.
# Randomization occurs prior to the initiation of Experimental Session 1. […]
# [7] = cited from earlier work; remark: listed apart in the source
# [8] = Solid-form stability of MBDB maleate forms (ball milling, drying, interconversion slurry); type: physicochemical
# Procedure: During the screen, a single crystal Maleate 1 of sufficient size and quality was obtained from a vapor diffusion experiment with ethanol and hexane. The crystal structure is reported elsewhere but the data confirmed the anhydrous/unsolved nature of the material. […] Two new crystalline forms of MBDB Maleate were observed during the screening designated as MBDB Maleate 2 and MBDB Maleate 3 (FIG. 96, 97). Additional characterization of these samples was conducted to better understand the nature of the materials produced, as shown below. MBDB Maleate 2 was generated once from a cooling crystallization from dioxane. The proton nuclear magnetic resonance (NMR) spectrum was consistent with a monomaleate salt of MBDB and contained residual dioxane. Only a limited amount of material was recovered so the only additional characterization that could be completed was differential scanning calorimetry (DSC). The DSC thermogram appears consistent with an anhydrous/unsolvated form with a likely melt at 96° C. (FIG. 100). […] An attempt was made to reproduce Maleate 2 using the same conditions and seeds of Maleate 2. PXRD analysis of the recovered solids however was consistent with Maleate 1. MBDB Maleate 3 was isolated from an evaporation experiment involving chloroform and ethyl acetate. NMR analysis of the material was consistent with a mono-maleate salt of MBDB. […]
# [9] = Physical stability of MBDB salts at 40° C./75% RH; type: physicochemical
# Procedure: During the screen, a single crystal Maleate 1 of sufficient size and quality was obtained from a vapor diffusion experiment with ethanol and hexane. The crystal structure is reported elsewhere but the data confirmed the anhydrous/unsolved nature of the material. […] Two new crystalline forms of MBDB Maleate were observed during the screening designated as MBDB Maleate 2 and MBDB Maleate 3 (FIG. 96, 97). Additional characterization of these samples was conducted to better understand the nature of the materials produced, as shown below. MBDB Maleate 2 was generated once from a cooling crystallization from dioxane. The proton nuclear magnetic resonance (NMR) spectrum was consistent with a monomaleate salt of MBDB and contained residual dioxane. Only a limited amount of material was recovered so the only additional characterization that could be completed was differential scanning calorimetry (DSC). The DSC thermogram appears consistent with an anhydrous/unsolvated form with a likely melt at 96° C. (FIG. 100). […] An attempt was made to reproduce Maleate 2 using the same conditions and seeds of Maleate 2. PXRD analysis of the recovered solids however was consistent with Maleate 1. MBDB Maleate 3 was isolated from an evaporation experiment involving chloroform and ethyl acetate. NMR analysis of the material was consistent with a mono-maleate salt of MBDB. Thermal analysis was consistent with an anhydrous/unsolvated material with a likely melting point of 73° C. (FIG. 101). […] No additional characterization was completed on this sample due to the limited amount of material that was recovered.
# [10] = oral, people, MDAI Dosages (psychonautwiki)
compound,measurement,setting,value
CNC(C)Cc1ccc2c(c1)OCO2.CNC(C)Cc1ccc2c(c1)OCO2.O=C(O)/C=C/C(=O)O (stereo not shown) [Fumarate],Solubility,"[1]; 1,4-dioxane",<1000 µg/mL
same,Solubility,[1]; 1:1 MeOH:chloroform (CHCl3),35000 µg/mL
same,Solubility,[1]; 2-propanol (IPA),<1000 µg/mL
same,Solubility,[1]; 95:5 ACN:water,4000 µg/mL
same,Solubility,[1]; 95:5 EtOH:water,15000 µg/mL
same,Solubility,[1]; 95:5 IPA:water,5000 µg/mL
same,Solubility,[1]; 95:5 THF:water,14000 µg/mL
same,Solubility,[1]; 95:5 acetone:water,2000 µg/mL
same,Solubility,[1]; 95:5 dioxane:water,6000 µg/mL
same,Solubility,[1]; acetone,<1000 µg/mL
same,Solubility,[1]; acetonitrile (ACN),<1000 µg/mL
same,Solubility,[1]; dichloromethane (DCM),<1000 µg/mL
same,Solubility,[1]; diethyl ether (Et2O),<1000 µg/mL
same,Solubility,[1]; ethanol (EtOH),4000 µg/mL
same,Solubility,[1]; ethyl acetate (EtOAc),<1000 µg/mL
same,Solubility,[1]; methanol (MeOH),47000 µg/mL
same,Solubility,[1]; tetrahydrofuran (THF),<1000 µg/mL
same,Solubility,[1]; water,260000 µg/mL
same,Hygroscopicity by DVS,[2]; listed as MDMA Hemi-Fumarate,Slightly hygroscopic
same,Hygroscopicity by DVS,[2]; listed as MDMA hemi-fumarate,slightly hygroscopic
same,Post-DVS XRPD (form change),[2]; solids after DVS analysis,Unchanged
same,Hygroscopic at 75% RH?,[3],no evidence of hygroscopicity and No
CNC(C)Cc1ccc2c(c1)OCO2.CNC(C)Cc1ccc2c(c1)OCO2.O=C(O)[C@@H](O)[C@H](O)[C@H](O)[C@@H](O)C(=O)O (stereo not shown) [Galactarate (Mucate)],Hygroscopic at 75% RH?,[3],no evidence of hygroscopicity and No
"CCC(Cc1ccc2c(c1)OCO2)NC (stereo not shown) [MBDB, 1-(benzo[d][1,3]dioxol-5-yl)-N-methylbutan-2-amine]",Oral dose for Drug Activity Level Threshold,[4]; [10],40 mg
same,Oral dose for drug activity level Very Strong,[4]; [10],≥300 mg
same,"Effects: Coming Down, Time After Dose","[5]; Duration of effects of MBDB in people, adapted from PiHKAL 1991",~90 min
same,Reported time to achieve peak effects,[5]; after dosing,0.75 to 1 h
same,"Oral MBDB Dose, Drug Activity Level: Very Strong","[5]; oral, people",≥350 mg
"NC1Cc2cc3c(cc2C1)OCO3 [MDAI, 5,6-methylenedioxy-2-aminoindane]",Percentage of time in the open arms (% TO),Male Sprague-Dawley rats; 0.625 mg/kg ip,numerical increase in % TO that was greater than vehicle or any other dose of MDAI
same,Percentage of time in the open arms (% TO),"Male Sprague-Dawley rats; doses too low or too high (0.15, 0.31, 1.25, 2.5)",opposite effect on % TO
same,Total open arm entries,Male Sprague-Dawley rats; higher and lower doses,trended towards an anxiogenic effect
same,Total open arm entries,Male Sprague-Dawley rats; middle dose,increase vs placebo that trended towards significance
same,Reported time to achieve peak effects,[4]; after dosing,0.75 to 2 h
same,Daytime sleepiness (ESS),[6]; Study Conclusion,significant improvement in lessening daytime sleepiness
same,Clinician-rated functional impairment score (SDS),"[6]; Study Conclusion, vs placebo",significant improvement in clinician-rated functional impairment score
same,Depression (HAM-D),"[6]; Study Conclusion, vs placebo",significant improvement depression
same,Change in CAPS-5 assessment,"[6]; Study Conclusion, vs placebo, hydrochloride salt with psychotherapy",significant mean reduction in CAPS-assessment compared to the placebo group
same,Adverse anxiogenic incidents,[6]; vs placebo-treated controls,without a significant increase in adverse anxiogenic incidents
"CCNC(C)Cc1ccc2c(c1)OCO2 (stereo not shown) [MDE, N-ethyl-3,4-methylenedioxyamphetamine]",Reported time to achieve peak effects,[7]; after dosing,1 to 2 h
same,Oral dose for drug activity level Very Strong,[7]; oral,≥225 mg
CCC(Cc1ccc2c(c1)OCO2)NC.O=C(O)/C=C\C(=O)O (stereo not shown) [Maleate 1],Hygroscopicity by DVS,[2],minimal water sorption over RH range
same,DVS weight gain,"[2]; at 95% RH, listed as MBDB Maleate Form1",0.6% wt gain
same,Hygroscopic?,[2]; based on moisture uptake at 95% observed during DVS analysis,Slightly
same,Stability to ball milling (recovered solids vs starting material),[8]; ball milled,stable under mechanical stressing
same,Physical stability by PXRD,[9]; 40° C./75% RH for 50 days,no change
same,Physical Stability,[9]; 40° C./75% RH overnight,No change
same,Physical Stability,[9]; after 1 day at 40° C./75% RH,No visible change
CCC(Cc1ccc2c(c1)OCO2)NC.O=C(O)/C=C\C(=O)O (stereo not shown) [Maleate 3],Form stability on drying (PXRD),"[8]; mixture of Maleate 3 and Maleate 1 dried at 46° C. overnight, recovered solids Maleate 1",metastable under these conditions
CNC(C)Cc1ccc2c(c1)OCO2.O=C(O)/C=C\C(=O)O (stereo not shown) [Maleate Form 1],Hygroscopic at 75% RH?,[3],No
CNC(C)Cc1ccc2c(c1)OCO2.O=C(O)/C=C\C(=O)O (stereo not shown) [Maleate Form 2],Hygroscopic at 75% RH?,[3],No
CNC(C)Cc1ccc2c(c1)OCO2.O=P(O)(O)O.O=P(O)(O)O (stereo not shown) [Phosphate],Hygroscopic at 75% RH?,[3],no evidence of hygroscopicity and No
CNC(C)Cc1ccc2c(c1)OCO2.O=C(O)CCC(=O)O (stereo not shown) [Succinate],Hygroscopic at 75% RH?,[3],No
